Experiments:
EKVX = experiment: NCI SRB assay; assay type: cell-based, human
NCI-H23 = experiment: NCI SRB assay; assay type: cell-based, human
CAKI-1 = experiment: NCI SRB assay; assay type: cell-based, human
SF-268 = experiment: NCI SRB assay; assay type: cell-based, human; conditions: SF-268, 1.00E-5 Molar
IGROV1 = experiment: NCI SRB assay; assay type: cell-based, human
SF-295 = experiment: NCI SRB assay; assay type: cell-based, human
ACHN = experiment: NCI SRB assay; assay type: cell-based, human
UACC-62 = experiment: NCI SRB assay; assay type: cell-based, human
NCI-H226 = experiment: NCI SRB assay; assay type: cell-based, human
LOX IMVI = experiment: NCI SRB assay; assay type: cell-based, human
SNB-19 = experiment: NCI SRB assay; assay type: cell-based, human
RPMI-8226 = experiment: NCI SRB assay; assay type: cell-based, human
NCI/ADR-RES = experiment: NCI SRB assay; assay type: cell-based, human
MCF7 = experiment: NCI SRB assay; assay type: cell-based, human
DU-145 = experiment: NCI SRB assay; assay type: cell-based, human
SK-OV-3 = experiment: NCI SRB assay; assay type: cell-based, human
hCA IX = target: T1, hCA IX (Homo sapiens, UniProt Q16790); experiment: stopped flow CO2 hydrase assay; assay type: biochemical
T1 construct: made in house
Outline: (§1)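 Recombinant enzymes assayed by stopped-flow CO2 hydration using 0.2 mM phenol red at 557 nm in 20 mM Hepes pH 7.5 with 20 mM Na2SO4, CO2 1.7–17 mM. Inhibitor and enzyme preincubated 15 min at room temperature.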

hCA I = target: T2, hCA I (Homo sapiens, UniProt P00915); experiment: stopped flow CO2 hydrase assay; assay type: biochemical; conditions: mean from 3 assays
T2 construct: made in house
T2 sequence (P00915 whole entry): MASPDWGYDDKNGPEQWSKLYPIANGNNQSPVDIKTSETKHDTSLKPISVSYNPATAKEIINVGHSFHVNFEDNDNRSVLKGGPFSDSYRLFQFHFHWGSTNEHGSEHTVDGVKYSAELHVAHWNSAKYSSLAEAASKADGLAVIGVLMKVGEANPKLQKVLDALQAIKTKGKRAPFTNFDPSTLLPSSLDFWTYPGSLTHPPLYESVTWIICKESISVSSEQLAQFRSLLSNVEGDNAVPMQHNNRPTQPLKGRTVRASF
Outline: as §1

hCA XII = target: T3, hCA XII (Homo sapiens, UniProt O43570); experiment: stopped flow CO2 hydrase assay; assay type: biochemical
T3 construct: made in house
T3 sequence (O43570 25-354): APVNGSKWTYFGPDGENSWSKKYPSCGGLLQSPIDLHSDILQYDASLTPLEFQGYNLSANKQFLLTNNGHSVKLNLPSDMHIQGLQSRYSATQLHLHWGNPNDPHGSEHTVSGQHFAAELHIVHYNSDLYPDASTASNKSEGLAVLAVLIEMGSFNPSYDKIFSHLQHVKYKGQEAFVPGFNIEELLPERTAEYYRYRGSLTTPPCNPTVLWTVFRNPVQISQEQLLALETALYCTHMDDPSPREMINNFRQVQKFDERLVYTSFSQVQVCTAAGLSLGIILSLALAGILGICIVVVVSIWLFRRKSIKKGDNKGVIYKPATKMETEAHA
Outline: as §1

CCRF-CEM = experiment: NCI SRB assay; assay type: cell-based, human
BT-549 = experiment: NCI SRB assay; assay type: cell-based, human
A498 = experiment: NCI SRB assay; assay type: cell-based, human
NCI-H322M = experiment: NCI SRB assay; assay type: cell-based, human
HL-60(TB) = experiment: NCI SRB assay; assay type: cell-based, human; conditions: HL-60(TB)
HOP-92 = experiment: NCI SRB assay; assay type: cell-based, human
HCT-15 = experiment: NCI SRB assay; assay type: cell-based, human
SK-MEL-2 = experiment: NCI SRB assay; assay type: cell-based, human
UACC-257 = experiment: NCI SRB assay; assay type: cell-based, human

Cc1cccc(-c2nc(Nc3ccccc3C(=O)O)c3ccccc3n2)c1 [6a, 2-((2-(m-Tolyl)quinazolin-4-yl)amino)benzoic acid]
GI% (EKVX; 10 μM): 79% | Growth Percent (EKVX; 1.00E-5 Molar): 20.98% | GI% (NCI-H23; NCI-H23, 10 μM): 79% | Growth Percent (NCI-H23; NCI-H23, 1.00E-5 Molar): 20.79% | GI% (CAKI-1; CAKI-1, 10 μM): 48% | Growth Percent (CAKI-1; CAKI-1, 1.00E-5 Molar): 52.39% | Growth Percent (SF-268): 37.50% | GI% (IGROV1; IGROV1, 10 μM): 41% | Growth Percent (IGROV1; IGROV1, 1.00E-5 Molar): 59.24% | GI% (SF-295; SF-295, 10 μM): 73% | Growth Percent (SF-295; SF-295, 1.00E-5 Molar): 27.07% | GI% (ACHN; 10 μM): 63% | Growth Percent (ACHN; 1.00E-5 Molar): 36.44% | GI% (UACC-62; UACC-62, 10 μM): 72% | Growth Percent (UACC-62; UACC-62, 1.00E-5 Molar): 28.00% | GI% (NCI-H226; NCI-H226, 10 μM): 64% | Growth Percent (NCI-H226; NCI-H226, 1.00E-5 Molar): 36.13% | GI% (LOX IMVI; 10 μM): 64% | Growth Percent (LOX IMVI; 1.00E-5 Molar): 36.42% | GI% (SNB-19; SNB-19, 10 μM): 79% | Growth Percent (SNB-19; SNB-19, 1.00E-5 Molar): 21.25% | GI% (RPMI-8226; RPMI-8226, 10 μM): 71% | Growth Percent (RPMI-8226; RPMI-8226, 1.00E-5 Molar): 28.59% | GI% (NCI/ADR-RES; 10 μM): 75% | Growth Percent (NCI/ADR-RES; 1.00E-5 Molar): 24.78% | GI% (MCF7; MCF7, 10 μM): 76% | Growth Percent (MCF7; MCF7, 1.00E-5 Molar): 23.97% | GI% (DU-145; DU-145, 10 μM): 50% | Growth Percent (DU-145; DU-145, 1.00E-5 Molar): 50.47% | GI% (SK-OV-3; SK-OV-3, 10 μM): 24% | Growth Percent (SK-OV-3; SK-OV-3, 1.00E-5 Molar): 76.74% | Selectivity ratio I/IX (hCA IX; KI hCA I / KI hCA IX): 2.4 | Selectivity ratio II/IX (hCA IX; KI hCA II / KI hCA IX): 2.00 | Ki (hCA IX; mean from 3 assays): 42.5 µM | Ki (hCA I): > 100 µM | Selectivity ratio I/XII (hCA XII; KI hCA I / KI hCA XII): 11.1 | Selectivity ratio II/XII (hCA XII; KI hCA II / KI hCA XII): 9.47 | Ki (hCA XII; mean from 3 assays): 9 µM | GI% (CCRF-CEM; 10 μM): 82% | Growth Percent (CCRF-CEM; 1.00E-5 Molar): 17.83% | GI% (BT-549; BT-549, 10 μM): 100% | Growth Percent (BT-549; BT-549, 1.00E-5 Molar): -0.68% | GI% (A498; A498, 10 μM): 52% | Growth Percent (A498; A498, 1.00E-5 Molar): 47.56% | GI% (NCI-H322M; 10 μM): 52% | Growth Percent (NCI-H322M; 1.00E-5 Molar): 48.74% | GI% (HL-60(TB); 10 μM): 60% | Growth Percent (HL-60(TB); 1.00E-5 Molar): 39.37% | GI% (HOP-92; HOP-92, 10 μM): 105% | Growth Percent (HOP-92; HOP-92, 1.00E-5 Molar): -5.02% | GI% (HCT-15; HCT-15, 10 μM): 86% | Growth Percent (HCT-15; HCT-15, 1.00E-5 Molar): 14.29% | GI% (SK-MEL-2; SK-MEL-2, 10 μM): 34% | Growth Percent (SK-MEL-2; SK-MEL-2, 1.00E-5 Molar): 66.01% | GI% (UACC-257; UACC-257, 10 μM): 51% | Growth Percent (UACC-257; UACC-257, 1.00E-5 Molar): 49.24%
